Results reported in US20210169077A1, “METHOD FOR IMPROVING SEED GERMINATION AND/OR PLANT TOLERANCE TO ENVIRONMENTAL STRESS” (DANSTAR FERMENT AG, priority 2017, published 2021).
“And” between values parts separate entries of the source, which are not always exact repeats. Equal entries are not always repeated.

Tests used:
Assay type in all cases: in vivo
[1] = tested on: corn seeds of the variety LG 32.58; experiment: Internal glycine-betaine concentration in corn seeds after foliar application, variety LG 32.58 (field trial, 1H-NMR)
Method: (§1) The field trial was performed with two different varieties of corn: the LG 32.58 variety and the Casey variety.
(§2) To prevent auto-fertilization during the corn seed production, the male reproductive parts of the female line were removed prior to the time of pollen shed.
[…] Each repetition consists of 18 plants. Control plants were treated with water.
(§3) Seeds (200) were collected at maturity. Seeds were ground using a ball mill and extracted with ethanol. Samples were evaporated to dryness and dissolved in deuterium oxide (D20) (50 mg/ml). 1H-NMR analysis (Bruker, at 500 MHz) was performed using 3-(trimethylsilyl)-1-propane sulfonate sodium salt (DSS) as the internal standard. Values in ppm assigned to NMR signals are chemical shifts of the 9 protons which give the signal, for the glycine-betaine, at 3.251 ppm. A total of three extractions were performed on each sample.

[2] = tested on: corn seeds of the variety Casey; experiment: Internal glycine-betaine concentration in corn seeds after foliar application, variety Casey (field trial, 1H-NMR); details: Greenstim sprayed on female line leaves at grain development stage, 4 kg/hectare, seeds collected at maturity, Rep 1-3, letter b differs from water control (p < 0.05)
Method: as §1, §2
(§4) The commercial Greenstim® (Lallemand) formulation was sprayed to the female line leaves during grain development stage at the equivalent of 4 kg/hectare. Each repetition consists of 18 plants. Control plants were treated with water.
as §3

corn seed Variety 1 = experiment: Internal concentration of glycine-betaine (mg/kg) in corn seed, Variety 1 female lines; details: for Percentage increase in internal GB concentration: versus plants treated with water
Method: as §2, §4, §3

corn seed = experiment: Effect of cold temperature on corn seed germination
Method: Two hundred seeds of each treatment (plants treated with water and plants treated with glycine-betaine) were planted onto moistened sand. Samples were placed into a germination chamber at 10° C. for a period of 7 days. Samples were then transferred to a germination chamber set to 25° C. for 5 days. The experiment was conducted with a variety of seeds with increased cold tolerance compared to more traditional seed varieties. The germination rate of standard seeds after a cold germination test is between 50 to 70%.

## C[N+](C)(C)CC(=O)[O-] [GB, N,N,N-trimethylglycine]
[1]; corn variety LG 32.58, Greenstim sprayed on female line leaves at grain development stage, 4 kg/hectare, seeds collected at maturity, Rep 1-3, letter b differs from water control (p < 0.05)
  GB concentration, GB (plants treated with GB): 41.18b μg · g^−1 MS and 37.71b μg · g^−1 MS and 38.53b μg · g^−1 MS
[1]; summary of Tables 1 to 4, plants sprayed at the flowering stage
  Internal glycine-betaine content of the seeds compared to untreated seeds: significantly higher
[2]
  GB concentration, GB (plants treated with GB): 79.19b μg · g^−1 MS and 79.33b μg · g^−1 MS and 83.91b μg · g^−1 MS
Corn seed Variety 1; Variety 1-female 1, Rep 1
  Internal concentration of glycine-betaine in corn seed, Mean GB (plants treated with GB): 6.67 mg/kg
  Percentage increase in internal GB concentration: 53%
Corn seed Variety 1; Variety 1-female 2, Rep 2
  Internal concentration of glycine-betaine in corn seed, Mean GB (plants treated with GB): 5.19 mg/kg
  Percentage increase in internal GB concentration: 1135%
Corn seed Variety 1; Variety 1-female 3, Rep 3
  Internal concentration of glycine-betaine in corn seed, Mean GB (plants treated with GB): 6.89 mg/kg
  Percentage increase in internal GB concentration: 15%
Corn seed; Variety-female 3, 200 seeds on moistened sand, 10° C. for 7 days then 25° C. for 5 days
  Seed germination percentage (plants treated with GB): 86.61
Corn seed; Variety-female 3, after cold treatment, versus seeds from plants treated with water
  Percentage increase in germination: 2.1%
Corn seed; summary of Table 5, seeds with increased internal content of glycine-betaine
  Seed germination percentage after cold treatment compared with untreated seeds: significantly better seed germination percentage
